Data: ChEMBL document CHEMBL1201862, “PubChem BioAssay data set” (2004)
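Five compound concentrations were applied to cells in 96-well plates for 48 hours; endpoints were derived by simple linear interpolation of the resulting dose-response curve. GI50 is the concentration that inhibits growth by half.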 Calls of active or inactive are those of the source. No stated cut-off is given here; in the data, active = GI50 up to about 1.1 µM and inactive = higher.

Experiments:
Test in all cases: DTP human tumour cell line panel, 48 h
HCT-15 = tested on: HCT-15
COLO 205 = tested on: COLO 205
UACC-257 = tested on: UACC-257
HL-60 = tested on: HL-60
HCT-116 = tested on: HCT-116
MDA-MB-435 = tested on: MDA-MB-435
A549 = tested on: A549
SNB-75 = tested on: SNB-75
RXF 393 = tested on: RXF 393
PC-3 = tested on: PC-3
OVCAR-5 = tested on: OVCAR-5
KM-20L2 = tested on: KM-20L2
SK-OV-3 = tested on: SK-OV-3
ACHN = tested on: ACHN
RPMI-8226 = tested on: RPMI-8226
UACC-62 = tested on: UACC-62
Malme-3M = tested on: Malme-3M
BT-549 = tested on: BT-549
NCI-H522 = tested on: NCI-H522
M14 = tested on: M14

| SMILES | GI50 (HCT-15) | GI50 (COLO 205) | GI50 (UACC-257) | GI50 (HL-60) | GI50 (HCT-116) | GI50 (MDA-MB-435) | GI50 (A549) | GI50 (SNB-75) | GI50 (RXF 393) | GI50 (PC-3) | GI50 (OVCAR-5) | GI50 (KM-20L2) | GI50 (SK-OV-3) | GI50 (ACHN) | GI50 (RPMI-8226) | GI50 (UACC-62) | GI50 (Malme-3M) | GI50 (BT-549) | GI50 (NCI-H522) | GI50 (M14) |
| --- | --- | --- | --- | --- | --- | --- | --- | --- | --- | --- | --- | --- | --- | --- | --- | --- | --- | --- | --- | --- |
| CNC1C(O)CC(OC2C/C=C(\C)C/C(C)=C/C=C/CCC(C)CNC(=O)/C=C/C=C/C2C)OC1C (stereo unspecified) | 0.202 µM | 0.202 µM (active) | 0.667 µM (active) | 0.153 µM (active) | 0.278 µM (active) | 0.377 µM (active) | 0.504 µM (active) | 0.711 µM (active) | 1.08 µM (active) | 1.06 µM (active) | 1.18 µM (inactive) | 0.63 µM (active) | 1.15 µM (inactive) | 1.5 µM (inactive) | 0.22 µM (active) | 0.44 µM (active) | 1.47 µM (inactive) | 1.25 µM (inactive) | 0.973 µM (active) | 0.24 µM (active) |
| CCCCN(CC)C(=O)C(=O)Cc1nc2ccc(C(=O)c3ccccc3)cc2nc1O | 67.1 µM | > 76.2 µM (inactive) | > 100 µM (inactive) | 20.8 µM (inactive) | > 100 µM (inactive) | – | > 100 µM (inactive) | 25.8 µM (inactive) | 25.5 µM (inactive) | – | > 100 µM (inactive) | 31.7 µM (inactive) | 85.1 µM (inactive) | 41 µM (inactive) | 27 µM (inactive) | 66.5 µM (inactive) | – | – | 20.3 µM (inactive) | > 100 µM (inactive) |
| COC(=O)OCC1OC(N2C(=O)NC(=O)C(I)C2N=[N+]=[N-])CC1OC(=O)OC (stereo unspecified) | > 100 µM | > 100 µM (inactive) | > 100 µM (inactive) | > 100 µM (inactive) | > 100 µM (inactive) | – | > 100 µM (inactive) | > 100 µM (inactive) | > 100 µM (inactive) | – | > 100 µM (inactive) | > 100 µM (inactive) | > 100 µM (inactive) | > 100 µM (inactive) | > 100 µM (inactive) | > 100 µM (inactive) | > 100 µM (inactive) | – | > 100 µM (inactive) | > 100 µM (inactive) |
| CN(C)c1ccc(/C=c2\sc3nnc(-c4ccco4)n3c2=O)cc1 | – | > 100 µM (inactive) | 16.7 µM (inactive) | > 100 µM (inactive) | > 100 µM (inactive) | – | > 100 µM (inactive) | 31.6 µM (inactive) | > 100 µM (inactive) | – | > 100 µM (inactive) | > 100 µM (inactive) | > 100 µM (inactive) | – | > 100 µM (inactive) | > 100 µM (inactive) | > 100 µM (inactive) | – | > 100 µM (inactive) | > 100 µM (inactive) |
| Nc1nc(NCCO)c(N=O)c(=O)[nH]1 | > 100 µM | > 100 µM (inactive) | > 100 µM (inactive) | > 100 µM (inactive) | > 100 µM (inactive) | – | > 100 µM (inactive) | > 100 µM (inactive) | > 100 µM (inactive) | – | > 100 µM (inactive) | > 100 µM (inactive) | > 100 µM (inactive) | > 100 µM (inactive) | > 100 µM (inactive) | > 100 µM (inactive) | > 100 µM (inactive) | – | > 100 µM (inactive) | > 100 µM (inactive) |
| O=C(Cc1c(C(=O)Nc2ccccc2)sc(C(=O)Nc2ccccc2)c1CC(=O)Nc1ccccc1)Nc1ccccc1 | – | > 100 µM (inactive) | > 100 µM (inactive) | > 100 µM (inactive) | > 100 µM (inactive) | – | > 100 µM (inactive) | > 100 µM (inactive) | > 100 µM (inactive) | – | > 100 µM (inactive) | > 100 µM (inactive) | > 100 µM (inactive) | > 100 µM (inactive) | > 100 µM (inactive) | > 100 µM (inactive) | > 100 µM (inactive) | – | > 100 µM (inactive) | > 100 µM (inactive) |
